Several values for one entry are separate records, joined by “and”; a condition that tells them apart may be missing. Identical values can stand only once.
How the values were obtained:
[1] = test system: L. donovani strain LV82; test: Murine VL model, parasite burdens in spleen, liver and bone marrow; format: in vivo, Leishmania donovani in BALB/c mice
Experimental: BALB/c mice were infected by intravenous injection (tail vein, no anesthetic) with 1–2 × 10^7 L. donovani strain LV82 amastigote parasites, obtained from the spleen of an infected hamster. Mice (n = 4/treatment) were treated with PBS pH 7.4 (controls) or APC12 (40 or 80 mg/kg) by intravenous injection (tail vein, no anesthetic, 0.2 mL) on days 7 and 8 post-infection or a single oral dose on day 7 post-infection. Milt was not given orally at a dose of 80 mg/kg because of its potential toxicity. On day 14, parasite burdens in the liver, spleen and bone marrow were determined. Results are from duplicate experiments, however, if a treatment had no significant effect then it […] in subsequent experiments.

[2] = two-component population PK model; listed as Milt; cited from earlier work
[3] = test system: L. donovani 087/11 (Sb-intermediate) intracellular amastigotes; test: Intracellular amastigote assay, Sb-intermediate strain 087/11; format: cell-based, Leishmania donovani; details: for IC50: Leishmania donovani, read-out: Mean IC50 Amastigotes; for Cross-Resistance Index (CRI50) Amast: strain 087/11, Sb-intermediate vs Sb-S; for Selectivity Index (SI50): strain 087/11, Sb-intermediate, macrophage CC50 / amastigote IC50
Excerpt: (§1) L. donovani cloned strains with different Sb susceptibility backgrounds were derived from isolates obtained from VL patients at the B.P. Koirala Institute of Health Sciences, Dharan, Nepal: MHOM/NP/02/BPK282/0cl4 (Sb sensitive, Sb-S). MHOM/NP/02/BPK087/0cl11 (Sb intermediate, Sb-I) and MHOM/NP/02/BPK275/0cl18 (Sb resistance, Sb-R [13]). In addition, Milt-resistant parasites raised against these three Sb sensitivity backgrounds and the Sb-sensitive strain (MHOM/ET/67:LV82) was also used in studies. Luciferase expressing promastigotes for the LV82 and Nepalese strains were prepared using previously published methods and the integrative construct (a gift from Dr D.F. Smith), designated pGL1313, contained pSSU-int fragments to facilitate integration into the ribosomal RNA locus of Leishmania.
In the macrophage studies, the method described in previous studies was used as follows. Briefly, bone-marrow-derived BALB/c macrophages (1–2 × 10^5) in 100 µL complete RPMI 1640 medium were added to the wells of a 96 well plate and left to adhere for 24 h at 37 °C, 5% CO₂/95% air. The medium was removed and 100 µL of the appropriate L. donovani luciferase-expressing promastigotes line (parasite: host cell ratio 1:10, 1:20 or 1:40) was added to each well, the ratio used reflected the infectivity of the strain and ensured that control data gave a bioluminescent signal within the same range. […] The variability in infectivity complicates strain to strain comparisons, but we decided to focus on achieving good infection levels in controls so that the effect of drug treatment could be determined. It is possible that intracellular macrophage parasites could have been at different developmental stages at 24 h post-infection. […] Therefore, we assumed that the effect of compounds on the amastigote stage rather than the promastigotes stage was determined in in vitro macrophage studies.
The plate was incubated for a further 24 h, the medium removed, and each well washed with PBS to eliminate non-internalized parasites, which were monitored microscopically. When the wells were devoid of external parasites, 100 µL of the medium alone (control) or appropriate APC compound was then added (0.01–0.197 µg/mL, n = 3/treatment). […]. All plates were incubated for 72 h at 37 °C, 5% CO₂/95% air. Wells with macrophage and with no drug or promastigotes added were used in control experiments.
(§2) Luciferin solution (1 µg/mL in 20 µL medium without FCS) was added to the appropriate wells of the 96-well plate at the end of the experiment and the amount of light emitted/well was measured using a luminometer (Biotek Synergy HT, relative light units) using a wavelength/bandwidth of 440/40 nm, or IVIS® imaging (Spectrum Living Image system®, total flux, photons/sec).
The effect of drug treatment on parasite survival was determined by calculating the mean suppression in the light emitted from the drug-treated experimental sample compared to the mean control value and used to calculate the IC50 using Grafit® software (version 5.0, Erithacus Software, East Grinstead, West Sussex, UK). The effect of drug alone on the viability of uninfected macrophages was determined using the same experimental protocol above, but cell viability was determined using an alamar blue colorimetric assay. At the end of the incubation period, cells’ 10 µL resazurin solution (0.02% w/v) was added to control and drug treated cells and the absorbance of samples was read at 575 and 595 nm. The effect of drug treatment on cell survival, which correlates with the magnitude of dye reduction, was expressed as percentage viability (or alamar blue reduction) and determined using the formula provided in the manufacturer’s protocol % alamar blue reduction=(εoxλ)(Aλ1)−(εoxλ1)(Aλ2)/(εredλ1)(A^′λ2)−(εredλ2)(A^′λ1)x100 […]

[4] = test system: L. donovani 282/4 Milt-Sb-sensitive promastigotes; test: Promastigote luciferase assay, Milt-resistant 282/4; format: cell-based, Leishmania donovani; details: for IC50: Leishmania donovani, read-out: Mean IC50 Value Promastigotes; for Promast: Amast Ratio: strain 282/4, Milt-Sb-sensitive
Excerpt: as §1
The anti-leishmanial activity of APC against L. donovani luciferase-expressing promastigotes was determined by adding of the appropriate 100 µL parasite line (10^6 cells/mL) to the wells of a 96-well plate and adding 100 µL medium alone (controls) or 100 µL of APC compound (0.01 µg/mL–6.25 µg/mL, n = 3/treatment). The plate was incubated for 72 h at 25 °C. In combination assays, the additional compound/compounds, at a final concentration of 0.195 or 0.39 µg/mL, was added to the initial APC being tested.
as §2
The effect of drug treatment on parasite survival was determined by calculating the mean suppression in the light emitted from the drug-treated experimental sample compared to the mean control value and used to calculate the IC50 using Grafit® software (version 5.0, Erithacus Software, East Grinstead, West Sussex, UK). The effect of drug alone on the viability of uninfected macrophages was determined using the same experimental protocol above, but cell viability was determined using an alamar blue colorimetric assay. At the end of the incubation period, cells’ 10 µL resazurin solution (0.02% w/v) was added to control and drug treated cells and the absorbance of samples was read at 575 and 595 nm. The effect of drug treatment on cell survival, which correlates with the magnitude of dye reduction, was expressed as percentage viability (or alamar blue reduction) and determined using the formula provided in the manufacturer’s protocol % alamar blue reduction=(εoxλ)(Aλ1)−(εoxλ1)(Aλ2)/(εredλ1)(A^′λ2)−(εredλ2)(A^′λ1)x100

[5] = test system: visceral leishmaniasis; details: VL monotherapy, Nepal, 12 months post-treatment; cited from earlier work
[6] = 40 mg/kg oral, day 7 post-infection, assessed day 14, Experiment 1
[7] = 40 mg/kg IV, assessed day 14, Experiment 2
[8] = 80 mg/kg oral, assessed day 14, Experiment 2

CCCCCCCCCCCCCCCCOP(=O)([O-])OCC[N+](C)(C)C [APC16, hexadecylphosphocholine, reference compound]
Mean Parasite Burden ± SD Bone Marrow [1, 6]: 197 ± 157 | Mean Parasite Burden ± SD Liver [1, 6]: 433 ± 46 | Mean Parasite Burden ± SD Spleen [1, 6]: 73 ± 68 | mean percentage suppression ± SD in parasite burden, Bone Marrow [1, 6]: 30 ± 35% | mean percentage suppression ± SD in parasite burden, Liver [1, 6]: 40 ± 25% | mean percentage suppression ± SD in parasite burden, Spleen [1, 6]: 53 ± 31% | threshold concentration between non-saturable and saturable component [2]: 50 μM and 20.4 μg/mL | IC50 [3]: 0.29 µg/mL and 710 nM | IC50 [4]: > 125 µg/mL and > 307 µM | Promast: Amast Ratio [4]: >77.64 | relapse rate [5]: 20%

CCCCCCCCCCCCCCOP(=O)([O-])OCC[N+](C)(C)C [APC14, tetradecylphosphocholine]
IC50 [3]: 0.19 µg/mL and 500 nM | Cross-Resistance Index (CRI50) Amast [3]: 1.58 | Selectivity Index (SI50) [3]: 215.21 | IC50 [4]: > 125 µg/mL and > 329 µM | Promast: Amast Ratio [4]: >72.25

CCCCCCCCCCCCOP(=O)([O-])OCC[N+](C)(C)C [APC12, dodecylphosphocholine]
Mean Parasite Burden ± SD Bone Marrow [1, 7]: 555 ± 254 | Mean Parasite Burden ± SD Liver [1, 7]: 434 ± 197 | Mean Parasite Burden ± SD Spleen [1, 7]: 112 ± 30 | mean percentage suppression ± SD in parasite burden, Bone Marrow [1, 7]: 8 ± 14% | mean percentage suppression ± SD in parasite burden, Liver [1, 7]: 60 ± 11% and 60 ± 19% | mean percentage suppression ± SD in parasite burden, Spleen [1, 7]: 60 ± 19% and 60 ± 11% | Mean Parasite Burden ± SD Bone Marrow [1, 6]: 210 ± 90 | Mean Parasite Burden ± SD Liver [1, 6]: 880 ± 276 | Mean Parasite Burden ± SD Spleen [1, 6]: 275 ± 96 | mean percentage suppression ± SD in parasite burden, Bone Marrow [1, 6]: 54 ± 34% | mean percentage suppression ± SD in parasite burden, Liver [1, 6]: 36 ± 34% | mean percentage suppression ± SD in parasite burden, Spleen [1, 6]: 8 ± 18% | Mean Parasite Burden ± SD Bone Marrow [1, 8]: 607 ± 115 | Mean Parasite Burden ± SD Liver [1, 8]: 939 ± 170 | Mean Parasite Burden ± SD Spleen [1, 8]: 257 ± 73 | mean percentage suppression ± SD in parasite burden, Bone Marrow [1, 8]: 2 ± 4% | mean percentage suppression ± SD in parasite burden, Liver [1, 8]: 27 ± 16% | mean percentage suppression ± SD in parasite burden, Spleen [1, 8]: 13 ± 27% | IC50 [3]: 0.2 µg/mL and 570 nM | Cross-Resistance Index (CRI50) Amast [3]: 0.77 | Selectivity Index (SI50) [3]: 176.90 | IC50 [4]: > 125 µg/mL and > 356 µM | Promast: Amast Ratio [4]: >1562.5

Reference: paper PMC7463460, “Structure and Antiparasitic Activity Relationship of Alkylphosphocholine Analogues against Leishmania donovani” (Microorganisms, 2020)
